The numbers were not newly measured in patent US12582389B2, “Urine preservative composition, device for sampling urine and method for manufacturing a urine sampling device” (VACUTEST KIMA S.R.L., priority 2020, dated 2026), which cites them from elsewhere.

For data set [1], the system named is Klebsiella sp. Particulars: boric acid 1.5-2% W/V with respect to the sample volume.
The conditions of data set [2]: urine samples with boric acid.

Each structure is given as a SMILES string.

Turning to `OB(O)O` [boric acid], in data set [1], the “effect on the most sensitive Gram-negative bacterial strains” value is given as “death”. For the same compound, the “pH of urine samples” value in data set [2] is listed as about 5.
